# Reference: patent US11596644B2, “Method for treating post-prandial hypoglycemia” (AVOLYNT, priority 2018, dated 2023)
# Columns and labels:
# [1] = test system: STZ-induced diabetic rats; experiment: Oral glucose tolerance test in STZ-induced diabetic rats (Example 4); assay type: in vivo, rat
# Experimental: Study in diabetic rats using oral glucose tolerance test. Efficacy of mizagliflozin was tested in a rat model for diabetes using an oral glucose tolerance test (OGTT). Diabetic model rats were prepared by intravenous administration of STZ to induce diabetes. Seven days after STZ administration, rats were fasted for 16 hours and then given an oral loading dose of 2.0 g/kg of glucose. Mizagliflozin, or water as the vehicle control, was then administered as a single oral dose to groups of male rats (n=8/group) at doses of 0.03, 0.1, 0.3, and 1 mg/kg. Another control group was given vehicle and consisted of normal male Sprague Dawley rats that were not administrated STZ. Voglibose was also administered as a single oral dose to male rats (n=8/group) at dose levels of 0.1, 0.3 and 1 mg/kg. Blood samples were collected just prior to loading with mixed carbohydrate and at 0.5, 1, 2, 3, 4, and 6 hours after loading. Plasma glucose concentrations were determined and ΔAUC0-1 h for plasma glucose was calculated.
# [2] = test system: Diet-induced obese (DIO) marmoset; experiment: Two-week dosing and OGTT in diet-induced obese marmosets; assay type: in vivo
# Experimental: Study on plasma glucose levels in marmosets. Mizagliflozin was evaluated in the Diet-induced obese (DIO) marmoset, a polygenic non-human primate model of obesity. Rimonabant, a canabinoid receptor (CB-1) antagonist that was marketed by Sanofi-Aventis for weight loss in obese patients, was administered at a maximal effective dose of 20 mg/kg twice daily as a positive control. Mizagliflozin was administered orally twice daily to DIO male marmosets (n=8/group) for 2 weeks at BID doses of 3 and 30 mg/kg/day (or only vehicle, aqueous hydroxypropylmethyl-cellulose 0.1%). Effects on body weight and body composition, and serum chemistry parameters were measured and glucose excursions during post-treatment OGTTs were also determined after administration of an oral loading dose of glucose (2.0 g/kg).
# [3] = test system: healthy adult male volunteers; experiment: Single dose study in humans, pharmacodynamic parameters after breakfast; assay type: in vivo, human
# Experimental: Single dose study in humans. A single oral dose of 2 mg, 5 mg, 10 mg, 20 mg, 40 mg, 80 mg, and 160 mg of mizagliflozin were administered to healthy adult male volunteers by a placebo-controlled, randomized, double-blind method. The single dose was administered orally immediately before breakfast with approximately 200 mL of water after fasting for at least 10 hours. Pharmacodynamic effect parameters (blood glucose level, insulin, GLP-1, and gastric inhibitory polypeptide (GIP)) were measured. Concentrations at each time point were measured, and summary statistics and coefficient variation (CV) were calculated for AUC0-t; t was up to 6 hours postdose. The time points were: before administration and 0.5, 1, 1.5, 2, 3, 4, 5, and 6 hours after administration. Blood glucose level and insulin were measured to evaluate in an exploratory manner the inhibitory effect on postprandial hyperglycemia. GLP-1 and GIP were measured to evaluate in an exploratory manner the incretin secretory action.
# [4] = single oral dose 2 mg before breakfast
# [5] = single oral dose 5 mg before breakfast
# [6] = single oral dose 10 mg before breakfast
# [7] = single oral dose 20 mg before breakfast
# [8] = single oral dose 40 mg before breakfast
# [9] = single oral dose 80 mg before breakfast
# [10] = single oral dose 160 mg before breakfast
compound,measurement,setting,value
"Cc1cc(OCCCNCC(C)(C)C(N)=O)ccc1Cc1c(O[C@@H]2O[C@H](CO)[C@@H](O)[C@H](O)[C@H]2O)n[nH]c1C(C)C [mizagliflozin, 3-(3-{4-[3-(β-D-glucopyranosyloxy)-5-isopropyl-1H-pyrazol-4-ylmethyl-]-3-methylphenoxy}propylamino)-2,2-dimethylpropionamide]",ED50,"[1]; Rattus norvegicus, read-out: ED50 calculated from mean ΔAUC0-1 h (% of control), glucose 2.0 g/kg, single oral dose",0.099 mg/kg
same,ΔAUC0-1 h of plasma glucose versus vehicle control,[1]; glucose 2.0 g/kg,significantly lowered
same,signs of diarrhea,[2]; 2 weeks dosing,No signs of diarrhea were observed
same,"effects on body weight, body composition (fat or lean mass) and serum chemistry parameters","[2]; 3 and 30 mg/kg, oral twice daily, 2 weeks",no significant effects
same,glucose excursions during post-treatment OGTT,"[2]; two weeks dosing, glucose 2.0 g/kg",blunting of the glucose excursions
same,AUC 0-6 GIP,[3]; [4],818.5 pg·h/mL
same,AUC 0-6 GLP-1 (active),[3]; [4],23.7 pmol·h/L
same,AUC 0-6 Insulin,[3]; [4],123.2 uU*h/ml
same,AUC 0-6 glucose,[3]; [4],628.3 mg·h/dL
same,GIP (peak),[3]; [4],183.6 pg/mL
same,GLP-1 (active) (peak),[3]; [4],6.4 pmol/L
same,Glucose (peak),[3]; [4],128.7 mg/dL
same,Insulin (peak),[3]; [4],40.38 uU/ml
same,"Time (h) to peak, GIP",[3]; [4],4 h
same,"Time (h) to peak, GLP-1 (active)",[3]; [4],0.5 h
same,"Time (h) to peak, glucose",[3]; [4],1.5 h
same,"Time (h) to peak, insulin",[3]; [4],1.5 h
same,AUC 0-6 GIP,[3]; [5],856.9 pg·h/mL
same,AUC 0-6 GLP-1 (active),[3]; [5],28.5 pmol·h/L
same,AUC 0-6 Insulin,[3]; [5],140.7 uU*h/ml
same,AUC 0-6 glucose,[3]; [5],631.3 mg·h/dL
same,GIP (peak),[3]; [5],194.5 pg/mL
same,GLP-1 (active) (peak),[3]; [5],6.1 pmol/L
same,Glucose (peak),[3]; [5],130.3 mg/dL
same,Insulin (peak),[3]; [5],47.1 uU/ml
same,"Time (h) to peak, GIP",[3]; [5],3 h
same,"Time (h) to peak, GLP-1 (active)",[3]; [5],0.5 h
same,"Time (h) to peak, glucose",[3]; [5],1 h
same,"Time (h) to peak, insulin",[3]; [5],1.5 h
same,AUC 0-6 GIP,[3]; [6],945.7 pg·h/mL
same,AUC 0-6 GLP-1 (active),[3]; [6],41.5 pmol·h/L
same,AUC 0-6 Insulin,[3]; [6],120.4 uU*h/ml
same,AUC 0-6 glucose,[3]; [6],661.9 mg·h/dL
same,GIP (peak),[3]; [6],252.3 pg/mL
same,GLP-1 (active) (peak),[3]; [6],8.7 pmol/L
same,Glucose (peak),[3]; [6],143.8 mg/dL
same,Insulin (peak),[3]; [6],39 uU/ml
same,"Time (h) to peak, GIP",[3]; [6],4 h
same,"Time (h) to peak, GLP-1 (active)",[3]; [6],0.5 h
same,"Time (h) to peak, glucose",[3]; [6],1.5 h
same,"Time (h) to peak, insulin",[3]; [6],2 h
same,AUC 0-6 GIP,[3]; [7],783.9 pg·h/mL
same,AUC 0-6 GLP-1 (active),[3]; [7],55.8 pmol·h/L
same,AUC 0-6 Insulin,[3]; [7],89.7 uU*h/ml
same,AUC 0-6 glucose,[3]; [7],612.9 mg·h/dL
same,GIP (peak),[3]; [7],216.7 pg/mL
same,GLP-1 (active) (peak),[3]; [7],11.6 pmol/L
same,Glucose (peak),[3]; [7],113.7 mg/dL
same,Insulin (peak),[3]; [7],25.9 uU/ml
same,"Time (h) to peak, GIP",[3]; [7],4 h
same,"Time (h) to peak, GLP-1 (active)",[3]; [7],1.5 h
same,"Time (h) to peak, glucose",[3]; [7],2 h
same,"Time (h) to peak, insulin",[3]; [7],3 h
same,AUC 0-6 GIP,[3]; [8],591.4 pg·h/mL
same,AUC 0-6 GLP-1 (active),[3]; [8],32.6 pmol·h/L
same,AUC 0-6 Insulin,[3]; [8],99.7 uU*h/ml
same,AUC 0-6 glucose,[3]; [8],629.1 mg·h/dL
same,GIP (peak),[3]; [8],166.7 pg/mL
same,GLP-1 (active) (peak),[3]; [8],7.5 pmol/L
same,Glucose (peak),[3]; [8],130.3 mg/dL
same,Insulin (peak),[3]; [8],33.8 uU/ml
same,"Time (h) to peak, GIP",[3]; [8],4 h
same,"Time (h) to peak, GLP-1 (active)",[3]; [8],0.5 h
same,"Time (h) to peak, glucose",[3]; [8],1.5 h
same,"Time (h) to peak, insulin",[3]; [8],1.5 h
same,AUC 0-6 GIP,[3]; [9],621.5 pg·h/mL
same,AUC 0-6 GLP-1 (active),[3]; [9],24.1 pmol·h/L
same,AUC 0-6 Insulin,[3]; [9],70.9 uU*h/ml
same,AUC 0-6 glucose,[3]; [9],611.92 mg·h/dL
same,GIP (peak),[3]; [9],161.6 pg/mL
same,GLP-1 (active) (peak),[3]; [9],5.5 pmol/L
same,Glucose (peak),[3]; [9],116 mg/dL
same,Insulin (peak),[3]; [9],20.5 uU/ml
same,"Time (h) to peak, GIP",[3]; [9],5 h
same,"Time (h) to peak, GLP-1 (active)",[3]; [9],2 h
same,"Time (h) to peak, glucose",[3]; [9],3 h
same,"Time (h) to peak, insulin",[3]; [9],3 h
same,AUC 0-6 GIP,[3]; [10],445.5 pg·h/mL
same,AUC 0-6 GLP-1 (active),[3]; [10],39.5 pmol·h/L
same,AUC 0-6 Insulin,[3]; [10],62.7 uU*h/ml
same,AUC 0-6 glucose,[3]; [10],606.2 mg·h/dL
same,GIP (peak),[3]; [10],117.9 pg/mL
same,GLP-1 (active) (peak),[3]; [10],7.9 pmol/L
same,Glucose (peak),[3]; [10],106.5 mg/dL
same,Insulin (peak),[3]; [10],16.2 uU/ml
same,"Time (h) to peak, GIP",[3]; [10],5 h
same,"Time (h) to peak, GLP-1 (active)",[3]; [10],2 h
same,"Time (h) to peak, glucose",[3]; [10],3 h
same,"Time (h) to peak, insulin",[3]; [10],3 h
